The results in this text go back to ChEMBL document CHEMBL1154510, “A new antiangiogenic C24 oxylipin from the soft coral Sinularia numerosa” (Bioorg Med Chem, 2009).

Each structure is given as a SMILES string. Activity calls are given as the source filed them. No cut-off for these calls is given here.

Type in all cases: functional, cell-based
Assay [1] relates to EA.hy 926. The assay is described as follows: Inhibition of tube formation in human EAhy926 cells at 50 uM after 24 hrs by phase-contrast microscopy.
For assay [2], the system named is EA.hy 926. The assay is described as follows: Inhibition of tube formation in human EAhy926 cells at 10 uM pre-incubated for 12 hrs measured after 24 hrs by phase-contrast microscopy.
The test system of assay [3] is EA.hy 926. Nature of the assay: Inhibition of tube formation in human EAhy926 cells at 20 uM after 24 hrs by phase-contrast microscopy.
For assay [4], the system named is EA.hy 926. The assay is described as follows: Inhibition of tube formation in human EAhy926 cells at 40 uM after 24 hrs by phase-contrast microscopy.
For assay [5], the system named is EA.hy 926. The assay is described as follows: Inhibition of tube formation in human EAhy926 cells after 24 hrs by phase-contrast microscopy.
Assay [6] has as its system EA.hy 926. The assay is described as follows: Inhibition of tube formation in human EAhy926 cells at 25 uM after 24 hrs by phase-contrast microscopy.

In the case of `CC/C=C\C/C=C\C/C=C\C/C=C\C/C=C\CCCC(=O)O`, the outcome in assay [1] was inactive.

In the case of `CCCCC/C=C\C[C@@H](O)/C=C/C=C/C=C\[C@@H](O)CCCC(=O)O`, the outcome in assay [2] was Active.

As to `CC1(COc2ccc(CC3SC(=O)NC3=O)cc2)CCCCC1` (stereo not given), the result in assay [2] was Active.

Consider `CCCCC/C=C\C=C\C(O)C/C=C\C/C=C\CCCC(=O)O` (stereo not given), for which the outcome in assay [3] and in assay [4] was Active.

With `Cc1cccc(Nc2cc(Cl)nc(SCC(=O)O)n2)c1C`, in assay [2], the result was Active.

On to `CCCCC/C=C\C=C\C(O)C/C=C\C/C=C\C/C=C\CCCCC(=O)O` (stereo not given), for which, in assay [5], the Activity entry was “Dose-dependent effect”. Moreover, the outcome in assay [2] was Active.

In the case of `CC/C=C\C/C=C\C/C=C\C/C=C\C/C=C\C/C=C\CCC(=O)O`, the result in assay [1] was inactive.

Take `CCCCC/C=C/C=C/C(O)CCCCCCCC(=O)O` (stereo not given): the outcome in assay [6] was Active.
